In assay [1] the test system is Respiratory syncytial virus recombinant with luciferase (RSV-Luc5). Kind of assay: HEp-2 RSV-Luc5 384-well assay (EC50 RSVFLUC Hep2-384 v2), Example V. In kind it is cell-based. The following applies: human respiratory syncytial virus, HEp-2, 72 h, read-out: EC50 RSV FLuc Hep-2 384 V2 (per Ex. V). The text has this:
Example V: HEp-2 RSV-Luc5 384-Well Assay (EC50 RSVFLUC Hep2-384 v2)
HEp-2 cell line was purchased from ATCC (Manassas, VA Cat #CCL-23) and maintained in Dulbecco's […] (DMEM) (Corning, New York, NY, Cat #15-018CM) supplemented with 10% fetal bovine serum (FBS) (Hyclone, Logan, UT, Cat #SH30071-03) and 1× Penicillin-Streptomycin-L-Glutamine (Corning, New York, NY, Cat #30-009-C1). Cells were passaged 2 times per week to maintain sub-confluent densities and were used for experiments at passage 5-20. Respiratory syncytial virus recombinant with luciferase (RSV-Luc5) (≥1×107 TCID50/ml) was purchased from Microbiologics (Saint Cloud, MN). Viral replication was determined in HEp-2 cells in the following manner.
Compounds are prepared in 100% DMSO in 384-well polypropylene plates (Greiner, Monroe, NC, Cat #784201) with 8 compounds per plate in grouped replicates of 4 at 10 serially diluted concentrations (1:3). The serially diluted compounds were transferred to low dead volume Echo plates (Labcyte, Sunnyvale, CA, Cat #LP-0200).
The test compounds were spotted to 384-well assay plates (Greiner, Monroe, NC, Cat #781091) at 200 nL per well. HEp-2 cells were harvested and suspended in DMEM (supplemented with 10% FBS and 1× Penicillin-Streptomycin-L-Glutamine) and seeded to the pre-spotted assay plates at 4,000 cells per well in 30 μL. RSV-Luc5 viruses were diluted in DMEM (supplemented with 10% FBS and 1× Penicillin-Streptomycin-L-(Glutamine) at 200,000 Infectious Units (IU) per mL and 10 μL per well was added to the assay plates containing cells and compounds, for an MOI=0.5. The assay plates were incubated for 3 days at 37° C. and 5% CO2. At the end of incubation, One-Glo reagent (Promega, Madison, WI, Cat #E6120) was prepared. The assay plates and One-Glo reagent were equilibrated to room temperature for at least 15 minutes. 40 μL per well of One-Glo reagent was added and the plates were incubated at room temp for 15 minutes before reading the luminescence signal on an EnVision multimode plate reader (Perkin Elmer, Waltham, MA). Remdesivir was used as positive control and DMSO was used as negative control. Values were normalized to the positive and negative controls (as 0% and 100% replication, respectively) and data was fitted using non-linear regression analysis by Gilead's dose response tool. The EC50 value for each compound was then determined as the concentration reducing the viral replication by 50%.

The test system of assay [2] is Human Rhinovirus 1B (HRV1B). The assay can be described thus: H1-HeLa HRV-CTG 384-well assay, HRV1B, Example X. The following applies: Rhinovirus A, 96 h, read-out: EC50 H1-HeLa_HRV 1B_HRV-CTG 384-well Assay (per Ex. X). In kind it is cell-based. An excerpt: Example X: H1-HeLa HRV-CTG 384-Well Assay
H1-Hela cell line (ATCC, Manassas, VA, Cat #CRL-1958) was maintained in Dulbecco's […] (DMEM) (Corning, New York, NY, Cat #15-018CM) supplemented with 10% fetal bovine serum (FBS) (Hyclone, Logan, UT, Cat #SH30071-03), and 1× Penicillin-Streptomycin-L-Glutamine (Corning, New York, NY, Cat #30-009-CI). Cells were passaged 2 times per week to maintain sub-confluent densities and were used for experiments at passage 5-30. The Human Rhinovirus 1B (HRV1B) (ATCC, Manassas, VA, Cat #VR-1645), Human Rhinovirus 14 (HRV14) (ATCC, Manassas, VA, Cat #VR-284), and Human Rhinovirus 16 (HRV16) (ATCC, Manassas, VA, Cat #BR-283) was obtained through ATCC. Viral infection was monitored by determining viability of H1-HeLa cells as described below.
Test molecules are prepared in 100% DMSO in 384-well polypropylene plates (Greiner, Monroe, NC, Cat #784201) with 8 compounds per plate in grouped replicates of 4 at 10 serially diluted concentrations (1:3). The serially diluted compounds were transferred to low dead volume Echo plates (Labcyte, Sunnyvale, CA, Cat #LP-0200).
The test compounds were spotted to 384-well assay plates (Greiner, Monroe, NC, Cat #781091) at 200 nL per well using an Echo acoustic dispenser (Labcyte, Sunnyvale, CA). H1-HeLa cells were harvested and suspended in DMEM (supplemented with 2% FBS and 1× Penicillin-Streptomycin-L-Glutamine) and seeded to the pre-spotted assay plates at 5,000 cells per well in 30 μL. HRV1B, HRV14, and HRV16 was diluted in DMEM (supplemented with 2% FBS and 1× Penicillin-Streptomycin-L-Glutamine) at 97.1 million Infectious Units (IU) per mL, 151 million IU per mL and 221 million IU per mL respectively. 10 μL of virus per well was added to the assay plates containing cells and compounds, for an MOI of 0.5, 1.0, and 0.25 respectively. The assay plates were incubated for 4 days at 37° C. and 5% CO2. At the end of incubation, Celltiter-Glo (Promega, Madison, WI, Cat #G7573) was prepared. The assay plates and Celltiter-Glo reagent were equilibrated to room temperature for at least 15 minutes. 40 μL per well of Celltiter-Glo reagent was added and the plates were incubated at room temperature for 15 minutes before reading the luminescence signal on an EnVision multimode plate reader (Perkin Elmer, Waltham, MA). Rupintrivir was used as positive control and DMSO was used as negative control. Values were normalized to the positive and negative controls (as 0% and 100% replication, respectively) and data was fitted using non-linear regression analysis by Gilead's dose response tool. The EC50 value for each compound was defined as the concentration reducing viral replication by 50%.

Where [3] appears, read: H1-HeLa cells, HRV1B MOI 0.5, 4 days, Celltiter-Glo.

Where two headings read alike, the source gives them in different places. Bounds are passed on as bounds.

Broadly, the EC50 is the concentration at which the effect is half-maximal. In the case of `N#C[C@]1(COC(=O)OC2CCCC2)O[C@@H](c2ccc3c(N)ncnn23)[C@H](O)[C@@H]1O` [Compound 1, ((2R,3S,4R,5S)-5-(4-aminopyrrolo[2,1-f][1,2,4]triazin-7-yl)-2-cyano-3,4-dihydroxytetrahydrofuran-2-yl)methyl cyclopentyl carbonate], the EC50 in assay [1] amounted to 21.2 µM; in assay [2] (setting [3]) it was 8.65 µM.
Turning to `CC(C)(C)COC(=O)OC[C@@]1(C#N)O[C@@H](c2ccc3c(N)ncnn23)[C@H](O)[C@@H]1O` [Compound 2, ((2R,3S,4R,5S)-5-(4-aminopyrrolo[2,1-f][1,2,4]triazin-7-yl)-2-cyano-3,4-dihydroxytetrahydrofuran-2-yl)methyl neopentyl carbonate], the results for the EC50 in assay [1] and in assay [2] (setting [3]) were 9.49 µM and 7 µM, respectively.
Take `CC[C@H](C)OC(=O)OC[C@@]1(C#N)O[C@@H](c2ccc3c(N)ncnn23)[C@H](O)[C@@H]1O` [Compound 4, ((2R,3S,4R,5S)-5-(4-aminopyrrolo[2,1-f][1,2,4]triazin-7-yl)-2-cyano-3,4-dihydroxytetrahydrofuran-2-yl)methyl ((S)-sec-butyl) carbonate]: the EC50 in assay [1] is 24.1 µM; in assay [2] (setting [3]) it was 11.2 µM.
Regarding `N#C[C@]1(COC(=O)OCCc2ccccc2)O[C@@H](c2ccc3c(N)ncnn23)[C@H](O)[C@@H]1O` [Compound 5, ((2R,3S,4R,5S)-5-(4-aminopyrrolo[2,1-f][1,2,4]triazin-7-yl)-2-cyano-3,4-dihydroxytetrahydrofuran-2-yl)methyl phenethyl carbonate], the values for the EC50 in assay [1] and in assay [2] (setting [3]) were 17.9 µM and 3.35 µM, respectively.
For `COC(=O)OC[C@@]1(C#N)O[C@@H](c2ccc3c(N)ncnn23)[C@H](O)[C@@H]1O` [Compound 6, ((2R,3S,4R,5S)-5-(4-aminopyrrolo[2,1-f][1,2,4]triazin-7-yl)-2-cyano-3,4-dihydroxytetrahydrofuran-2-yl)methyl methyl carbonate], the EC50 in assay [1] came out at 17.8 µM; in assay [2] (setting [3]), 8.91 µM.
For `CC(C)CCOC(=O)OC[C@@]1(C#N)O[C@@H](c2ccc3c(N)ncnn23)[C@H](O)[C@@H]1O` [Compound 7, ((2R,3S,4R,5S)-5-(4-aminopyrrolo[2,1-f][1,2,4]triazin-7-yl)-2-cyano-3,4-dihydroxytetrahydrofuran-2-yl)methyl isopentyl carbonate] the same measures were 16.8 µM and 2.81 µM.
With `CC(C)COC(=O)OC[C@@]1(C#N)O[C@@H](c2ccc3c(N)ncnn23)[C@H](O)[C@@H]1O` [Compound 8, ((2R,3S,4R,5S)-5-(4-aminopyrrolo[2,1-f][1,2,4]triazin-7-yl)-2-cyano-3,4-dihydroxytetrahydrofuran-2-yl)methyl isobutyl carbonate], the EC50 in assay [1] stood at 11.5 µM; in assay [2] (setting [3]), 5.16 µM.
Consider `CCCOC(=O)OC[C@@]1(C#N)O[C@@H](c2ccc3c(N)ncnn23)[C@H](O)[C@@H]1O` [Compound 9, ((2R,3S,4R,5S)-5-(4-aminopyrrolo[2,1-f][1,2,4]triazin-7-yl)-2-cyano-3,4-dihydroxytetrahydrofuran-2-yl)methyl propyl carbonate], for which the EC50 was 13.3 µM in assay [1] and 7.57 µM in assay [2] (setting [3]).
In the case of `CC[C@@H](C)OC(=O)OC[C@@]1(C#N)O[C@@H](c2ccc3c(N)ncnn23)[C@H](O)[C@@H]1O` [Compound 10, ((2R,3S,4R,5S)-5-(4-aminopyrrolo[2,1-f][1,2,4]triazin-7-yl)-2-cyano-3,4-dihydroxytetrahydrofuran-2-yl)methyl ((R)-sec-butyl) carbonate], the EC50 in assay [1] is 24.7 µM; in assay [2] (setting [3]) it was 18.1 µM.
Take `CC(C)OC(=O)OC[C@@]1(C#N)O[C@@H](c2ccc3c(N)ncnn23)[C@H](O)[C@@H]1O` [Compound 11, ((2R,3S,4R,5S)-5-(4-aminopyrrolo[2,1-f][1,2,4]triazin-7-yl)-2-cyano-3,4-dihydroxytetrahydrofuran-2-yl)methyl isopropyl carbonate]: the EC50 is 31.2 µM in assay [1] and 12.2 µM in assay [2] (setting [3]).
Take `N#C[C@]1(COC(=O)OC2CCOCC2)O[C@@H](c2ccc3c(N)ncnn23)[C@H](O)[C@@H]1O` [Compound 12, ((2R,3S,4R,5S)-5-(4-aminopyrrolo[2,1-f][1,2,4]triazin-7-yl)-2-cyano-3,4-dihydroxytetrahydrofuran-2-yl)methyl (tetrahydro-2H-pyran-4-yl) carbonate]: the EC50 in assay [1] is more than 50 µM; in assay [2] (setting [3]), 10 µM.
Turning to `CC(C)(C)OC(=O)OC[C@@]1(C#N)O[C@@H](c2ccc3c(N)ncnn23)[C@H](O)[C@@H]1O` [Compound 13, ((2R,3S,4R,5S)-5-(4-aminopyrrolo[2,1-f][1,2,4]triazin-7-yl)-2-cyano-3,4-dihydroxytetrahydrofuran-2-yl)methyl tert-butyl carbonate], the EC50 amounted to 12.1 µM in assay [1] and 3.19 µM in assay [2] (HRV1B, H1-HeLa).
For the compound `CCC(CC)OC(=O)OC[C@@]1(C#N)O[C@@H](c2ccc3c(N)ncnn23)[C@H](O)[C@@H]1O` [Compound 14, ((2R,3S,4R,5S)-5-(4-aminopyrrolo[2,1-f][1,2,4]triazin-7-yl)-2-cyano-3,4-dihydroxytetrahydrofuran-2-yl)methyl pentan-3-yl carbonate], the concentration for a half-maximal effect (EC50) was 31.6 µM in assay [1] and 22.9 µM in assay [2] (setting [3]).
For `CC(C)COC(=O)OC[C@@]1(C#N)O[C@@H](c2ccc3c(N)ncnn23)[C@@H]2OC(=O)O[C@@H]21` [Compound 15, ((3aS,4R,6S,6aS)-6-(4-aminopyrrolo[2,1-f][1,2,4]triazin-7-yl)-4-cyano-2-oxotetrahydrofuro[3,4-d][1,3]dioxol-4-yl)methyl isobutyl carbonate], the EC50 was found to be 14.4 µM in assay [1] and 7.05 µM in assay [2] (setting [3]).
On to `CC(C)COC(=O)Nc1ncnn2c([C@@H]3O[C@](C#N)(CO)[C@@H](O)[C@H]3O)ccc12` [Compound 16, Isobutyl (7-((2S,3R,4S,5R)-5-cyano-3,4-dihydroxy-5-(hydroxymethyl)tetrahydrofuran-2-yl)pyrrolo[2,1-f][1,2,4]triazin-4-yl)carbamate], for which the EC50 in assay [1] and in assay [2] (setting [3]) was 50 µM each time.

The values are drawn from US20230382940A1, “ANTIVIRAL COMPOUNDS AND METHODS OF MAKING AND USING THE SAME” (Gilead Sciences, Inc., priority 2022, published 2023).
